Blank lines part the entries; values can stand above or below the compound they belong to.
What was measured:
[1] = test system: breast and MCL cell lines; experiment: Longer-term (10-12 day) growth/death assay in breast and MCL cell lines; type: cell-based; conditions: for response upon prolonged exposure: SKBR3, MDA-MB-468 and MCF-7 cells, 7-10 days
[2] = test system: SDMA, MDM4 splicing, p53 in GBM and lymphoma cell lines; experiment: SDMA, MDM4 splicing and p53 in GBM and lymphoma cell lines; type: cell-based; conditions: 1 μM
Experimental: Next, effects on cellular methylation and the p53 pathway were evaluated in GBM cells treated with a PRMT5 inhibitor by measuring SDMA, p53 and p21 protein levels and MDM4 splicing (FIG. 27). […] Alternative MDM4 splicing was detected in all cell lines but SF539 which are p53 mutant and have low basal expression of the long MDM4 isoform (FIG. 27, panel A). p53 levels increased in all cell lines, while the induction of p21 protein was observed only in cell lines that have wild-type p53 (Z138 (MCL), U87-MG and A172 (GBM)). […] The role of p53 in the response of GBM cell lines to PRMT5 inhibition will be further tested in future studies. Additionally, the effects of PRMT5 inhibition on cell cycle and neural differentiation in GBM models are being explored.

[3] = target: PRMT5/MEP50 (Homo sapiens, UniProt O14744); experiment: PRMT5/MEP50 radioactive assay, 3H transfer from SAM to H4 peptide / protein substrate; type: biochemical; conditions: close analogs of Compound C
PRMT5/MEP50, sequence (O14744 whole entry): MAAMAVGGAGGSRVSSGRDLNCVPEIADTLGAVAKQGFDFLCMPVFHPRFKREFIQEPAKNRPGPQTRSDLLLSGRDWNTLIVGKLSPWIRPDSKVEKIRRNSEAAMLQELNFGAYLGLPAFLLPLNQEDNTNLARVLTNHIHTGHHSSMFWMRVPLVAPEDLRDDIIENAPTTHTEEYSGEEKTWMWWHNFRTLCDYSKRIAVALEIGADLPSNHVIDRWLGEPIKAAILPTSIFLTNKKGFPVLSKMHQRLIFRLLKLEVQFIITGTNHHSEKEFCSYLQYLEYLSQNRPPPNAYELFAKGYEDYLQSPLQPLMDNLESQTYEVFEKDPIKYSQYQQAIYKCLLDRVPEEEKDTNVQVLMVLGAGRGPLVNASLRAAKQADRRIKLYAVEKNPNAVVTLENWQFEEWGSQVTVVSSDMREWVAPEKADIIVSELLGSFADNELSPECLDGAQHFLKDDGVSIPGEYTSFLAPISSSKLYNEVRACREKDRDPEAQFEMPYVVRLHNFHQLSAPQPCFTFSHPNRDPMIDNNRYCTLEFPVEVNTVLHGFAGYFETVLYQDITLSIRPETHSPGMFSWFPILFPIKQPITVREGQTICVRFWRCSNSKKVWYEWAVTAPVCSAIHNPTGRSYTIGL
PRMT5/MEP50, sequence (Q9BQA1 whole entry partner): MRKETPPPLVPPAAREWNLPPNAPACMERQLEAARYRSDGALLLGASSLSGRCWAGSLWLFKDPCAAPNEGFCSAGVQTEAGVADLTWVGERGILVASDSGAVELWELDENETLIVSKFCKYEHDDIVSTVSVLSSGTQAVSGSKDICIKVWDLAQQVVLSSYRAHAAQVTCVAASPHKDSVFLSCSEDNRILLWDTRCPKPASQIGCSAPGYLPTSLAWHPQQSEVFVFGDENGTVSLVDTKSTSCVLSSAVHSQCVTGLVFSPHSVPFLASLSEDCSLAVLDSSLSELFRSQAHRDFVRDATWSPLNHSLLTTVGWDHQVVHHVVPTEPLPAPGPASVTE

[4] = test system: lymphoma cell lines (Z138, Granta-519, DOHH2, RL); experiment: RNA-sequencing of lymphoma cell lines; type: cell-based
Experimental: FIG. 12: Gene expression changes in lymphoma cell lines treated with a PRMT5 inhibitor. A. Quantification of differentially expressed (DE) genes in lymphoma cell lines after Compound B (0.1 and 0.5 μM) treatment (days 2 and 4). B. Overlap of DE genes across lymphoma lines.
A. Mechanisms of regulation of cellular splicing (adapted from Bezzi M. et al.). B. Analysis of intron expression in lymphoma lines treated with 0.1 or 0.5 μM Compound B.
A. Quantification of isoform switches in 4 lymphoma cell lines treated with Compound B (0.1 and 0.5 μM) for 2 and 4 days. B. Overlap of isoform switches in 4 lymphoma lines. C. List of genes that undergo alternative splicing in all 4 lymphoma lines (overlap of 4 cell lines).
PRMT5 methylates histones and proteins involved in RNA processing and therefore PRMT5 inhibition is expected to have a profound effect on cellular mRNA homeostasis. To further decipher cellular mechanisms that are regulated by PRMT5 and contribute to the cellular response to PRMT5 inhibitors, global gene expression changes were evaluated in lymphoma models sensitive to PRMT5 inhibition. […]
First, gene expression changes were evaluated in lymphoma lines treated with increasing concentrations of PRMT5 tool molecule for 2 and 4 days (FIG. 12). […] The relevance of these genes in the mechanism of cellular response to PRMT5 inhibition is being evaluated. […]

[5] = test system: Type I and Type II PRMTs and lysine methyltransferases (KMTs); experiment: Methyltransferase selectivity panel (19 enzymes); type: biochemical; conditions: for selectivity for PRMT5/MEP50 over the other methyltransferases: PRMT5 tool compounds
Excerpt: FIG. 6: Phylogenetic tree highlighting the methyltransferases tested in the selectivity panel. […] PRMT9 is shown for relationship purposes only within the family tree and was not evaluated in the panel. Figure adapted from Richon V M. et al.
PRMT9/FBXO11, which is the other Type II PRMT and the only PRMT to lack the THW loop, was not included due to the lack of a functional enzyme assay.

[6] = test system: SDMA, MDM4 splicing, p53/p21 in Z138 cells; experiment: Dose-response of MDM4 splicing, SDMA and p53/p21 in Z138 cells; type: cell-based
[7] = test system: GBM cell lines; experiment: 2D 14-day growth/death CTG assay in GBM cell lines; type: cell-based; conditions: only SF539 underwent apoptosis
[8] = test system: GBM cell lines; experiment: 2D 6-day growth/death CTG assay in GBM cell lines; type: cell-based; conditions: with the exception of SF539
[9] = test system: MCL cell lines; experiment: 6-day growth/death assay in a panel of MCL lines; type: cell-based
Excerpt: FIG. 18: Activity of PRMT5 inhibitor and ibrutinib as single agents and in combination in MCL cell lines. […] C.
• The strongest mechanistic link currently described between PRMT5 and cancer is in MCL. PRMT5 is frequently overexpressed in MCL and is highly expressed in the nuclear compartment where it increases levels of histone methylation and silences a subset of tumor suppressor genes. Importantly, cyclin D1, the oncogene that is translocated in the vast majority of MCL patients, associates with PRMT5 and through a cdk4-dependent mechanism increases PRMT5 activity. PRMT5 mediates the suppression of key genes that negatively regulate DNA replication allowing for cyclin D1-dependent neoplastic growth. PRMT5 knockdown inhibits cyclin D1-dependent cell transformation causing death of tumor cells.

[10] = test system: Z-138 MCL xenograft; experiment: 21-day efficacy study in Z-138 MCL xenograft model; type: in vivo
Experimental: B. Quantified SDMA western data from tumors harvested at the end of the efficacy study (3 hours post last dose).

[11] = test system: MDM4 splicing, p53 and p21 in MCL lines; experiment: MDM4 splicing (RT-PCR) and p53/p21 western in MCL lines; type: cell-based; conditions: for p53 and p21 expression: Z138 cells, 200 nM Compound C, 5 μM Nutlin-3
Experimental: To understand whether p53 activation is associated with MDM4 isoform switching, MDM4 alternative splicing was analyzed. […] The role of the p53 pathway in the biology of the response of p53 wild-type MCL cells to PRMT5 inhibition is being evaluated.

[12] = test system: MDA-MB-468 xenograft; experiment: MDA-MB-468 triple negative breast cancer xenograft model; type: in vivo
Experimental: Next, the efficacy of PRMT5 inhibition was evaluated in in vivo models of breast cancer.

[13] = test system: panel of cancer cell lines; type: cell-based
Excerpt: DLBCL-diffuse large B-cell lymphoma, GBM-glioblastoma, MCL-mantle cell lymphoma, MM-multiple myeloma
The cell lines were selected to represent tumor types where PRMT5 activity has been reported to regulate key pathways and/or cell growth and survival (such as lymphoma and MCL, glioma, breast and lung cancer lines).

[14] = test system: breast cancer lines; experiment: Propidium iodide FACS cell cycle analysis of breast cancer lines; type: cell-based
[15] = Z-138 (MCL) cells, all time points (days 3-10)
[16] = ZR-75-1 cells, all time points (days 3-12)

Structure (SMILES): O=C(NC[C@H](O)CN1CCc2ccccc2C1)c1ccnc(NC2CCC2)c1 [Compound B]
response upon prolonged exposure [1]: cytotoxic response
response [1, 15]: profound overall net cell death
response [1, 16]: cytostatic response
MDM4 splicing [2]: induces alternative splicing of MDM4
SDMA levels [2]: decreases SDMA levels
p53 [2]: activates p53
inhibitory potency compared with Compound C [3]: similar
isoform switching ([4]; 0.1 and 0.5 μM, 2 and 4 days): induces isoform switching for a subset of genes
intron splicing ([4]; 0.1 or 0.5 μM): attenuates the splicing of a subset of introns
selectivity for PRMT5/MEP50 over the other methyltransferases [5]: Selectivity for PRMT5/MEP50 over the other methyltransferases was also observed

Structure (SMILES): CC(=O)N1CCC(Nc2cc(C(=O)NC[C@H](O)CN3CCc4ccccc4C3)ncn2)CC1 [Compound C]
response upon prolonged exposure [1]: cytotoxic response
response [1, 15]: profound overall net cell death
response [1, 16]: cytostatic response
MDM4 RNA splicing and SDMA/p53/p21 levels [6]: induces dose-dependent changes
concentration above which SDMA levels were undetectable by Western blot [6]: above 8 nM
concentration above which changes in MDM4 splicing and p53/p21 protein expression were apparent [6]: above 8 nM
nature of the cytostatic/cytotoxic response upon longer exposure [7]: did not change
nature of the response [8]: largely cytostatic
sensitivity (gIC50) of Z-138, Maver-1 and JVM-2 [9]: low
sensitivity of Mino, Jeko-1 [9]: only moderately sensitive
body weight loss ([10]; all groups in all efficacy studies presented): no body weight loss
TGI ([10]; summary for the xenograft models of mantle cell lymphoma): ~100%
MDM4 isoform switching ([11]; Z138 and JVM-2 cells (both p53 wild-type)): induced MDM4 isoform switching
p53 and p21 expression [11]: increased p53 and p21 expression to similar levels
potency for any other tested enzyme ([5]; FIG. 6 legend): > 10^−5 M
tumor growth inhibition (TGI) ([12]; 100 mg/kg BID): 83%
efficacy ([12]; 100 mg/kg QD): not efficacious
growth response of breast cancer cell lines ([13]; 6-day growth/death assay): complete growth inhibition
gIC50 ([13]; most sensitive lymphoma lines (MCL and DLBCL)): single digit
cell death (increase in <2N) ([14]; 3 out of 4 breast cancer lines, after 7-10 days of treatment): induction of cell death
cell cycle distribution ([14]; MCF-7 cells (p53 wild-type), day 2): accumulation of cells in G1 phase (2N)
cell cycle distribution ([14]; MDA-MB-468 and SKBR-3, day 7 or day 10): decrease in G1 (2N) phase
cell cycle distribution ([14]; ZR-75-1 cells (p53 wild-type)): minor effects on cell cycle distribution

inhibitory potency compared with Compound C [3]: similar
Structure (SMILES): O=C(NC[C@H](O)CN1CCc2ccccc2C1)c1cc(NC2COC2)ncn1 [Compound E]
selectivity for PRMT5/MEP50 over the other methyltransferases [5]: Selectivity for PRMT5/MEP50 over the other methyltransferases was also observed

inhibitory potency compared with Compound C [3]: similar
Structure (SMILES): CC(=O)N1CCC(Nc2cc(C(=O)NC[C@H](O)CN3CCc4ccccc4C3)ccn2)CC1 [Compound F]
selectivity for PRMT5/MEP50 over the other methyltransferases [5]: Selectivity for PRMT5/MEP50 over the other methyltransferases was also observed

Structure (SMILES): COc1ccc(C2=N[C@@H](c3ccc(Cl)cc3)[C@@H](c3ccc(Cl)cc3)N2C(=O)N2CCNC(=O)C2)c(OC(C)C)c1 [Nutlin-3, reference compound]
p53 and p21 expression [11]: increased p53 and p21 expression to similar levels

From patent US20190350931A1, “COMBINATION THERAPY” (GlaxoSmithKline Intellectual Property Development Limited, priority 2016, published 2019)
